EPA's ToxRefDB 2

What was measured:
mouse [1] = conditions: Carcinogenicity, b6c3f1, Oral, Feed, dose end: 2 year, group: systemic
rat [2] = conditions: Prenatal developmental toxicity study, sprague dawley, Oral, Gavage/Intubation, dose end: 15 GD, group: maternal
rat [3] = conditions: Multigenerational reproductive toxicity study, sprague dawley, Oral, Feed, dose end: 2 generation
rat [4] = conditions: Subchronic oral toxicity in rodents, fischer, Feed, dose end: 3 month, group: systemic, systemic / organ weight / liver / absolute + systemic / organ weight / liver / relative to body weight + systemic / pathology microscopic / …
dog [5] = conditions: Chronic toxicity, beagle, Oral, Capsule, dose end: 53 week, group: systemic
dog [6] = conditions: Subchronic oral toxicity in nonrodent, beagle, Capsule, dose end: 13 week, group: systemic
rat [7] = conditions: Subchronic oral toxicity in rodents, sprague dawley, Feed, dose end: 90 day, group: systemic, systemic / in life observation / clinical signs / altered breathing rate + systemic / in life observation / food consumption / food …
dog [8] = conditions: Subchronic oral toxicity in nonrodent, beagle, Feed, dose end: 90 day, group: systemic, systemic / hematology / hematocrit (hct) / hematocrit (hct) + systemic / hematology / hemoglobin (hgb) / hemoglobin (hgb) + systemic / …
mouse [9] = conditions: Carcinogenicity; other; Oral; Gavage/Intubation; dose end: 6 month; group: systemic; systemic / in life observation / clinical signs / abnormal gait + systemic / in life observation / clinical signs / ataxia + systemic / in …
mouse [10] = conditions: Carcinogenicity, other, Oral, Gavage/Intubation, dose end: 6 month, group: systemic
mouse [11] = conditions: Carcinogenicity, cd1, Oral, Gavage/Intubation, dose end: 16 PND, group: systemic
mouse [12] = conditions: Carcinogenicity, other, Oral, Gavage/Intubation, dose end: 6 month, group: systemic; remark: listed apart in the source
rat [13] = conditions: Combined chronic toxicity/carcinogenicity, wistar, Oral, Feed, dose end: 24 month, group: systemic
mouse [14] = conditions: Carcinogenicity, b6c3f1, Inhalation, Whole-Body, dose end: 105 week, group: systemic
mouse [15] = conditions: Subchronic inhalation toxicity, b6c3f1, Whole-Body, dose end: 14 week, group: systemic
rat [16] = conditions: Subchronic inhalation toxicity, fischer, Whole-Body, dose end: 14 week, group: systemic
rat [17] = conditions: Carcinogenicity, fischer, Inhalation, Whole-Body, dose end: 105 week, group: systemic
[18] = systemic / pathology microscopic / liver / hyperplasia + systemic / organ weight / liver / absolute + systemic / organ weight / liver / …
[19] = systemic / in life observation / body weight / body weight + systemic / in life observation / body weight / body weight gain + systemic / in…
[20] = group: offspring, systemic / in life observation / body weight / offspring (pup) weight
[21] = group: offspring, systemic / in life observation / body weight / offspring (pup) weight + developmental / offspring survival late / viability index / …
[22] = group: parental, systemic / organ weight / liver / absolute + systemic / organ weight / liver / relative to body weight + systemic / pathology microscopic / …
[23] = group: reproductive, reproductive / offspring survival early / litter size / litter size
[24] = systemic / pathology microscopic / liver / pigmentation + systemic / clinical chemistry / alanine aminotransferase (alt/sgpt) / alanine …
[25] = systemic / pathology microscopic / spleen / pigmentation
[26] = systemic / pathology microscopic / spleen / pigmentation + systemic / in life observation / clinical signs / emesis + systemic / pathology …
[27] = systemic / in life observation / clinical signs / body temperature + systemic / in life observation / clinical signs / dehydration + …
[28] = systemic / pathology microscopic / liver / hypertrophy
[29] = systemic / in life observation / body weight / body weight gain + systemic / in life observation / clinical signs / dehydration + systemic…
[30] = systemic / clinical chemistry / alanine aminotransferase (alt/sgpt) / alanine aminotransferase (alt/sgpt) + systemic / clinical chemistry / …
[31] = systemic / clinical chemistry / cholesterol / cholesterol + systemic / clinical chemistry / cholesterol / cholesterol, direct ldl + systemic…
[32] = systemic / organ weight / heart / absolute
[33] = systemic / in life observation / body weight / body weight + systemic / pathology microscopic / eye / degeneration + systemic / pathology …
[34] = systemic / in life observation / body weight / body weight + systemic / pathology microscopic / nose / degeneration + systemic / pathology …
[35] = systemic / organ weight / heart / absolute + systemic / pathology microscopic / nose / degeneration + systemic / pathology microscopic / …
[36] = systemic / pathology microscopic / nose / hyaline droplet + systemic / pathology microscopic / nose / degeneration
[37] = systemic / in life observation / body weight / body weight + systemic / in life observation / body weight / body weight gain + systemic / …
[38] = systemic / pathology microscopic / nose / metaplasia
[39] = systemic / pathology microscopic / kidney / hyperplasia + systemic / pathology microscopic / nose / atrophy + systemic / pathology …
[40] = systemic / pathology microscopic / nose / atrophy + systemic / pathology microscopic / nose / hyperplasia + systemic / pathology microscopic…

Compound `CCCCN(CC)c1c([N+](=O)[O-])cc(C(F)(F)F)cc1[N+](=O)[O-]` [Benfluralin] has an LOAEL (mouse [1]; systemic / pathology microscopic / liver / hyperplasia) of 185 mg/kg/day, an LEL (mouse [1]; [18]) of 185 mg/kg/day and an NEL (mouse [1]; [18]) of 36.4 mg/kg/day. It also gave an NOAEL (mouse [1]; [18]) of 36.4 mg/kg/day, an LOAEL (rat [2]; systemic / in life observation / body weight / body weight + systemic / in life observation / body weight / body weight gain) of 1000 mg/kg/day and an NEL (rat [2]; [19]) of 225 mg/kg/day. It also gave an NOAEL (rat [2]; [19]) of 475 mg/kg/day, an LEL (rat [2]; systemic / in life observation / body weight / body weight + systemic / in life observation / food consumption / food consumption) of 475 mg/kg/day and an LEL (rat [3]; [20]) of 74.4 mg/kg/day. It also gave an LOAEL (rat [3]; [20]) of 74.4 mg/kg/day, an NEL (rat [3]; [21]) of 7.3 mg/kg/day and an NOAEL (rat [3]; [21]) of 7.3 mg/kg/day. For the same compound, the LEL (rat [3]; [22]) was 68.1 mg/kg/day, the LOAEL (rat [3]; [22]) was 68.1 mg/kg/day and the NEL (rat [3]; [22]) was 7.2 mg/kg/day. For the same compound, the NOAEL (rat [3]; [22]) was 7.2 mg/kg/day, the LEL (rat [3]; [23]) was 401 mg/kg/day and the LOAEL (rat [3]; [23]) was 401 mg/kg/day. The NEL (rat [3]; [23]) was 74.4 mg/kg/day, the NOAEL (rat [3]; [23]) was 74.4 mg/kg/day and the LEL (rat [4]) was 16.8 mg/kg/day. For the same compound, the LOAEL (rat [4]) was greater than 522 mg/kg/day, the NEL (rat [4]) was 3.23 mg/kg/day and the NOAEL (rat [4]) was no less than 522 mg/kg/day. It also gave an LOAEL (dog [5]; systemic / pathology microscopic / liver / pigmentation) of 25 mg/kg/day, an LEL (dog [5]; [24]) of 25 mg/kg/day and an NEL (dog [5]; [24]) of 5 mg/kg/day. The NOAEL (dog [5]; [24]) was 5 mg/kg/day, the LEL (dog [6]; [25]) was 25 mg/kg/day and the LOAEL (dog [6]; [25]) was 25 mg/kg/day. For the same compound, the NEL (dog [6]; [26]) was 5 mg/kg/day and the NOAEL (dog [6]; [26]) was 5 mg/kg/day.
`O.O.O.O.O.O.O.O.O.O.[Na+].[Na+].[O-]B1OB2OB([O-])OB(O1)O2` [Borax] was tested, and the LEL (rat [7]) was 770 mg/kg/day, the LOAEL (rat [7]) was 770 mg/kg/day and the NEL (rat [7]) was 232 mg/kg/day. It also gave an NOAEL (rat [7]) of 232 mg/kg/day, an LEL (dog [8]) of 192 mg/kg/day and an LOAEL (dog [8]) of 192 mg/kg/day. It also gave an NEL (dog [8]) of 22 mg/kg/day and an NOAEL (dog [8]) of 22 mg/kg/day.
In the case of `CCOC(=O)C(C)(C)Oc1ccc(Cl)cc1` [Clofibrate], the LEL (mouse [9]) is reported as 200 mg/kg/day, the LOAEL (mouse [9]) is reported as greater than 500 mg/kg/day and the NEL (mouse [9]) is reported as 50 mg/kg/day. The NOAEL (mouse [9]) was no less than 500 mg/kg/day, the LOAEL (mouse [10]; [27]) was greater than 650 mg/kg/day and the NOAEL (mouse [10]; [27]) was no less than 650 mg/kg/day. It also gave an LEL (mouse [10]; [28]) of 50 mg/kg/day, an NEL (mouse [10]; [28]) of less than 50 mg/kg/day and an LOAEL (mouse [11]; [29]) greater than 500 mg/kg/day. It also gave an NEL (mouse [11]; [29]) of 100 mg/kg/day, an NOAEL (mouse [11]; [29]) of no less than 500 mg/kg/day and an LEL (mouse [11]; systemic / in life observation / clinical signs / palpable mass) of 250 mg/kg/day. It also gave an LOAEL (mouse [12]; [30]) greater than 250 mg/kg/day, an NOAEL (mouse [12]; [30]) of no less than 250 mg/kg/day and an LEL (mouse [12]; [31]) of 50 mg/kg/day. It also gave an NEL (mouse [12]; [31]) of less than 50 mg/kg/day.
With `NCCO.O=C(Nc1ccc([N+](=O)[O-])cc1Cl)c1cc(Cl)ccc1O` [Clonitralid] the LOAEL (rat [13]; systemic / in life observation / body weight / body weight gain) was 410 mg/kg/day, the NOAEL (rat [13]; systemic / in life observation / body weight / body weight gain + systemic / clinical chemistry / alanine aminotransferase (alt/sgpt) / …) was 100 mg/kg/day and the LEL (rat [13]; [32]) was 20 mg/kg/day. The NEL (rat [13]; [32]) was less than 20 mg/kg/day.
Compound `OCc1ccco1` [Furfuryl alcohol] has an LOAEL (mouse [14]; [33]) greater than 32 ppm, an NOAEL (mouse [14]; [33]) of no less than 32 ppm and an LEL (mouse [14]; [34]) of 2 ppm. It also gave an NEL (mouse [14]; [34]) of less than 2 ppm, an LOAEL (mouse [15]; [35]) greater than 32 ppm and an NOAEL (mouse [15]; [35]) of no less than 32 ppm. For the same compound, the LEL (mouse [15]; [36]) was 2 ppm, the NEL (mouse [15]; [36]) was less than 2 ppm and the LOAEL (rat [16]; [37]) was greater than 32 ppm. It also gave an NOAEL (rat [16]; [37]) of no less than 32 ppm, an LEL (rat [16]; [38]) of 2 ppm and an NEL (rat [16]; [38]) of less than 2 ppm. It also gave an LOAEL (rat [17]; [39]) greater than 32 ppm, an NOAEL (rat [17]; [39]) of no less than 32 ppm and an LEL (rat [17]; [40]) of 2 ppm. For the same compound, the NEL (rat [17]; [40]) was less than 2 ppm.
